Measurements published in article PMC9880438, “Pharmacokinetics of active compounds of a Terminalia chebula Retz. Ethanolic extract after oral administration rats using UPLC-MS/MS” (Frontiers in Pharmacology, 2023).
Like-named read-outs stand apart in the source and are kept apart here.

Legend:
[1] = Stability of QC samples of the analytes in rat plasma under storage conditions; assay type: physicochemical; settings: n = 6
Protocol: Preparation of quality control (QC) samples with three concentrations (low, medium, and high) of 16, 160, and 3,200 ng/ml for ellagic acid; 1.6, 16, 320 ng/ml for protocatechuic acid, ethyl gallate and 1,2,3,4,6-O-pentagalloylglucose; 40, 400 and 8,000 ng/ml for chebulic acid, gallic acid, corilagin and chebulinic acid and 160, 1,600, 32000 ng/ml for chebulagic acid. Both QC samples and stock solutions were stored in a refrigerator at 4°C.
Under variable treatment conditions: stored for 12 h at auto-sampler, for 4 hours at room temperature, under three freeze-thaw cycles, and kept at −80°C for 7 days, quality control samples were analyzed to assess the stability of the nine analytes in plasma.

[2] = rat, in vivo, po
Protocol: (§1) UPLC-MS/MS system was used for analysis and monitoring, which consisted primarily of an Agilent 1290 UPLC system (Agilent Technologies, Germany) and an Agilent 6,470 series triple quad (TQ) mass spectrometer (MS) (Agilent Technologies, Singapore) equipped with an electrospray ionization source.
(§2) Separation was carried out on an ACQUITY UPLC® HSS T3 column (2.1 × 100 mm, 1.8 μm), and temperature in the column was kept at 20°C. In the mobile phase, 0.1% formic acid in water and acetonitrile were used as solvents A and B, respectively. Gradient elution was performed as follows: 1%–5% B at 0–3 min; 5%–30% B at 3–4 min; 30%–40% B at 4–8 min; 40%–100% B at 8–9 min; 100%–100% B at 9–12 min. The flow rate was set at 0.3 ml/min and the injection volume was 10 μL.
(§3) Multiple reaction monitoring (MRM) was used for quantitative analysis in negative (−) ionization mode. The mass spectrometric parameters were set as follows: drying gas (N2) temperature was 300°C; gas (N2) flow rate was 7 L/min; atomizer pressure was 35 psi; sheath gas flow was 11 L/min and capillary voltage was 3800 V. The specific mass spectrometric parameters of the precursor ion, product ion, fragmentor, collision energy, and ion modes of the nine compounds and IS are shown in Table 1.
(§4) The plasma sample (100 μl) was sequentially spiked with 20 μl IS solutions (caffeic acid, 1,000 ng/ml); 20 μL methanol, and 10 μl formic acid, then vortex-mixed for 1 min. The mixture was precipitated protein with 1,000 μl methanol by vortex mixing for 3 min. The supernatant was collected into a 1.5 ml clean centrifuge tube after centrifugation at for 10 min 14,000 rpm, and evaporated under a nitrogen stream until dry. After that, the residue was redissolved in 100 μl methanol, vortex-mixed for 3 min, then centrifuged for 10 min at 14,000 rpm. 10 μl analyte was injected into the UPLC-MS/MS system.
(§5) In this study, six of male rats were used, given free access to water, and fasted for 12 h before the experimental period. The TC extracts were dissolved in 0.5% CMC-Na aqueous solution as a suspension at a concentration of 1 g/ml. A dose of 10 g/kg of the suspension was administered to the rats orally, the blood samples of approximately 300 μL were drawn from the fundus venous plexus of rats pre- and post-oral administration at 0.00, 0.08, 0.17, 0.25, 0.50, 0.75, 1, 2, 4, 6, 8, 10, 12, 24, 36, 48, 60, 72, 84, 96, 120, 144 and 168 h, respectively. For analysis, the plasma supernatants collected from the centrifuged plasma were frozen at −80°C after centrifugation for 10 min at 6,000 rpm.
(§6) Data were expressed as mean ± standard deviation (mean ± SD). MassHunter Workstation software (version B.09.00) was quantitatively used to calculate the plasma concentrations of nine analytes. To evaluate the specific pharmacokinetic parameters, DAS Software (DAS 3.0, Medical College of Wannan, China) was used to process the pharmacokinetic results.

[3] = parameters: method as in Mishra et al., 2013; settings: dose of 40 mg/kg; ref Mishra et al., 2013; cited from earlier work
[4] = Pharmacokinetic study in rats after oral administration of TC extracts (UPLC-MS/MS of plasma); settings: for AUC / AUC(0-inf) / Cmax / MRT / MRT inf / Tmax / half-life: male, Sprague-Dawley, rat, plasma, po, 10 g/kg
Protocol: as §1, §2, §3, §4, §5, §6

[5] = in vivo; settings: male, Sprague-Dawley, rat, po, 10 g/kg
Protocol: as §1, §2, §3, §4, §5, §6

[6] = spiked 40 ng/mL, autosampler for 12 h
[7] = spiked 40 ng/mL, room temperature for 4 h
[8] = spiked 40 ng/mL, three freeze-thaw cycles
[9] = spiked 40 ng/mL, −80°C for 7 days
[10] = spiked 400 ng/mL, autosampler for 12 h
[11] = spiked 400 ng/mL, room temperature for 4 h
[12] = spiked 400 ng/mL, three freeze-thaw cycles
[13] = spiked 400 ng/mL, −80°C for 7 days
[14] = spiked 8,000 ng/mL, autosampler for 12 h
[15] = spiked 8,000 ng/mL, room temperature for 4 h
[16] = spiked 8,000 ng/mL, three freeze-thaw cycles
[17] = spiked 8,000 ng/mL, −80°C for 7 days
[18] = spiked 16 ng/mL, autosampler for 12 h
[19] = spiked 16 ng/mL, room temperature for 4 h
[20] = spiked 16 ng/mL, three freeze-thaw cycles
[21] = spiked 16 ng/mL, −80°C for 7 days
[22] = spiked 1.6 ng/mL, autosampler for 12 h
[23] = spiked 1.6 ng/mL, room temperature for 4 h
[24] = spiked 1.6 ng/mL, three freeze-thaw cycles
[25] = spiked 1.6 ng/mL, −80°C for 7 days
[26] = spiked 320 ng/mL, autosampler for 12 h
[27] = spiked 320 ng/mL, room temperature for 4 h
[28] = spiked 320 ng/mL, three freeze-thaw cycles
[29] = spiked 320 ng/mL, −80°C for 7 days

AUC [4] | AUC(0-inf) [4] | Cmax [4] | MRT [4] | MRT inf [4] | Tmax [4] | half-life [4] | Measured concentration after storage [1, 18] | Structure (SMILES) | Measured concentration after storage [1, 6] | Measured concentration after storage [1, 7] | Measured concentration after storage [1, 8] | Measured concentration after storage [1, 9] | Measured concentration after storage [1, 10] | Measured concentration after storage [1, 11] | Measured concentration after storage [1, 12] | Measured concentration after storage [1, 13] | Measured concentration after storage [1, 14] | Measured concentration after storage [1, 15] | Measured concentration after storage [1, 16] | Measured concentration after storage [1, 17] | also measured
 |  |  |  |  |  |  |  | O=C(O)C[C@H](C(=O)O)[C@H]1c2c(cc(O)c(O)c2O)C(=O)O[C@@H]1C(=O)O [Chebulic acid, chebulic acid] | 35.6 ± 3.9 ng/mL | 39.9 ± 1.9 ng/mL | 40.1 ± 3.3 ng/mL | 37.5 ± 2.1 ng/mL | 393.3 ± 52.6 ng/mL | 395.7 ± 29.7 ng/mL | 398.4 ± 12.2 ng/mL | 364.4 ± 17.5 ng/mL | 8,230.9 ± 726.4 ng/mL | 7,996.4 ± 517.7 ng/mL | 7,691 ± 316.7 ng/mL | 6,878.6 ± 535.3 ng/mL | T1/2 [2]: 1.51 h; AUC (0-tn) ([2]; 10 g/kg): 29045.30 ± 4,395.44 h·ng/mL; AUC (0-∞) ([2]; 10 g/kg): 34069.03 ± 6,641.84 h·ng/mL; Cmax ([2]; 10 g/kg): 1927.06 ± 572.23 ng/mL; MRT (0-tn) ([2]; 10 g/kg): 33.56 ± 3.77 h; MRT (0-∞) ([2]; 10 g/kg): 77.92 ± 22.14 h; T1/2 ([2]; 10 g/kg): 6.60 ± 4.36 h; Tmax ([2]; 10 g/kg): 1.67 ± 0.52 h
16700 ± 12400 ng·h/mL | 17400 ± 12500 ng·h/mL | 591 ± 203 ng/mL | 53.5 ± 4.12 h | 99.4 ± 46.2 h | 100 ± 31.2 min | 1580 ± 1340 min |  | O=C(O[C@@H]1O[C@@H]2COC(=O)c3cc(O)c(O)c(O)c3-c3c(cc(O)c(O)c3O)C(=O)O[C@H]([C@H]1O)[C@@H]2O)c1cc(O)c(O)c(O)c1 [Corilagin, corilagin] | 38.8 ± 1.2 ng/mL | 39.6 ± 3.0 ng/mL | 42.8 ± 2.4 ng/mL | 39.7 ± 2.1 ng/mL | 435.7 ± 34.5 ng/mL | 398.2 ± 34.3 ng/mL | 405.3 ± 6.0 ng/mL | 395.6 ± 7.2 ng/mL | 7,335.4 ± 704.5 ng/mL | 8,930.5 ± 535.3 ng/mL | 8,802.7 ± 713.0 ng/mL | 8,304.6 ± 362.4 ng/mL | 
6810 ng·h/mL | 7340 ng·h/mL | 390 ± 80.5 ng/mL | 45.9 ± 8.13 h | 56.5 ± 13 h | 58.2 ± 50.4 min | 494 ± 537 min | 17.6 ± 1.6 ng/mL | O=c1oc2c(O)c(O)cc3c(=O)oc4c(O)c(O)cc1c4c23 [Ellagic acid, ellagic acid] |  |  |  |  |  |  |  |  |  |  |  |  | Measured concentration after storage [1, 19]: 17.5 ± 1.7 ng/mL; Measured concentration after storage [1, 20]: 16.9 ± 1.4 ng/mL; Measured concentration after storage [1, 21]: 16.8 ± 1.0 ng/mL; Measured concentration after storage ([1]; spiked 160 ng/mL, autosampler for 12 h): 154.8 ± 13.9 ng/mL; Measured concentration after storage ([1]; spiked 160 ng/mL, room temperature for 4 h): 156.3 ± 17.8 ng/mL; Measured concentration after storage ([1]; spiked 160 ng/mL, three freeze-thaw cycles): 171.8 ± 10.5 ng/mL; Measured concentration after storage ([1]; spiked 160 ng/mL, −80°C for 7 days): 163.8 ± 4.3 ng/mL; Measured concentration after storage ([1]; spiked 3,200 ng/mL, autosampler for 12 h): 3,450.0 ± 313.1 ng/mL; Measured concentration after storage ([1]; spiked 3,200 ng/mL, room temperature for 4 h): 3,437.2 ± 188 ng/mL; Measured concentration after storage ([1]; spiked 3,200 ng/mL, three freeze-thaw cycles): 3,438.7 ± 285.7 ng/mL; Measured concentration after storage ([1]; spiked 3,200 ng/mL, −80°C for 7 days): 3,594.0 ± 81.5 ng/mL; Shape of plasma concentration-time curve ([4]; rat plasma, oral TC extracts, Figure 2): double peaks phenomenon
16.9 ± 8.28 ng·h/mL | 16.9 ± 8.2 ng·h/mL | 12.5 ± 4.38 ng/mL | 1.55 ± 0.42 h | 1.6 ± 0.4 h | 37.8 ± 15.6 min | 125 ± 130 min | 16.3 ± 2.6 ng/mL | CCOC(=O)c1cc(O)c(O)c(O)c1 [Ethyl gallate, ethyl gallate] |  |  |  |  |  |  |  |  |  |  |  |  | Measured concentration after storage [1, 22]: 1.7 ± 0.2 ng/mL; Measured concentration after storage [1, 23]: 1.4 ± 0.1 ng/mL; Measured concentration after storage [1, 24]: 1.6 ± 0.1 ng/mL; Measured concentration after storage [1, 25]: 1.6 ± 0.1 ng/mL; Measured concentration after storage [1, 19]: 14.6 ± 1.9 ng/mL; Measured concentration after storage [1, 20]: 13.6 ± 1.2 ng/mL; Measured concentration after storage [1, 21]: 14.2 ± 0.4 ng/mL; Measured concentration after storage [1, 26]: 323.3 ± 13.8 ng/mL; Measured concentration after storage [1, 27]: 345.6 ± 14.7 ng/mL; Measured concentration after storage [1, 28]: 328.6 ± 17.1 ng/mL; Measured concentration after storage [1, 29]: 307.4 ± 29.5 ng/mL
 |  |  |  |  |  |  |  | O=C(O)c1cc(O)c(O)c(O)c1 [Gallic acid, gallic acid] | 34.9 ± 5.1 ng/mL | 35.5 ± 1.0 ng/mL | 41.0 ± 2.8 ng/mL | 41.2 ± 0.8 ng/mL | 431.7 ± 27.3 ng/mL | 385 ± 36.1 ng/mL | 393.9 ± 35.3 ng/mL | 358.6 ± 21.8 ng/mL | 8,051.6 ± 602.3 ng/mL | 8,051.2 ± 472.7 ng/mL | 8,222.3 ± 456.3 ng/mL | 8,304.7 ± 418.5 ng/mL | AUC [5]: 16000 ng·h/mL; AUC(0-inf) [5]: 16000 ng·h/mL; Cmax [5]: 2230 ng/mL; MRT [5]: 6.58 ± 1.07 h; MRT inf [5]: 6.58 ± 1.07 h; Tmax [5]: 1.17 ± 0.41 h; half-life [5]: 90.6 ± 25.8 min; T1/2 ([2]; male, Sprague-Dawley): 2.06 h

Structure (SMILES) | AUC [4] | AUC(0-inf) [4] | Cmax [4] | MRT [4] | MRT inf [4] | Tmax [4] | half-life [4] | Measured concentration after storage [1, 18] | Measured concentration after storage [1, 6] | Measured concentration after storage [1, 7] | Measured concentration after storage [1, 8] | Measured concentration after storage [1, 9] | Measured concentration after storage [1, 10] | Measured concentration after storage [1, 11] | Measured concentration after storage [1, 12] | Measured concentration after storage [1, 13] | Measured concentration after storage [1, 14] | Measured concentration after storage [1, 15] | Measured concentration after storage [1, 16] | Measured concentration after storage [1, 17] | also measured
O=C(O)C[C@@H]1C(=O)O[C@H]2[C@H](OC(=O)c3cc(O)c(O)c(O)c3)[C@@H](OC(=O)c3cc(O)c(O)c4c3[C@H]1[C@H](O)C(=O)O4)[C@H](OC(=O)c1cc(O)c(O)c(O)c1)O[C@@H]2COC(=O)c1cc(O)c(O)c(O)c1 [Chebulinic acid, chebulinic acid] | 38200 ± 16300 ng·h/mL | 41900 ± 15800 ng·h/mL | 853 ± 433 ng/mL | 58.2 ± 5.63 h | 76 ± 15.3 h | 110 ± 24.6 min | 2600 ± 792 min |  | 42.2 ± 5.1 ng/mL | 36.8 ± 3.9 ng/mL | 41.8 ± 2.3 ng/mL | 47.1 ± 1.6 ng/mL | 359.7 ± 18.1 ng/mL | 414.3 ± 21.9 ng/mL | 378.1 ± 29.2 ng/mL | 373.5 ± 23.6 ng/mL | 7,174.2 ± 321.2 ng/mL | 8,592.3 ± 543.8 ng/mL | 8,447.4 ± 574.6 ng/mL | 8,787.4 ± 801 ng/mL | Anti-gastric ulcer effect [3]: good anti-gastric ulcer effect
O=C(O)c1ccc(O)c(O)c1 [Protocatechuic acid, protocatechuic acid] | 70.8 ± 16.6 ng·h/mL | 70.8 ± 16.6 ng·h/mL | 24.7 ± 3.27 ng/mL | 3.39 ± 0.83 h | 3.39 ± 0.83 h | 32.4 ± 6 min | 124 ± 45.6 min | 14.5 ± 2.0 ng/mL |  |  |  |  |  |  |  |  |  |  |  |  | Measured concentration after storage [1, 22]: 1.7 ± 0.2 ng/mL; Measured concentration after storage [1, 23]: 1.6 ± 0.1 ng/mL; Measured concentration after storage [1, 24]: 1.8 ± 0.1 ng/mL; Measured concentration after storage [1, 25]: 1.5 ± 0.2 ng/mL; Measured concentration after storage [1, 19]: 16.4 ± 0.6 ng/mL; Measured concentration after storage [1, 20]: 13.9 ± 0.7 ng/mL; Measured concentration after storage [1, 21]: 13.1 ± 1.2 ng/mL; Measured concentration after storage [1, 26]: 305.9 ± 15.9 ng/mL; Measured concentration after storage [1, 27]: 297.9 ± 8.4 ng/mL; Measured concentration after storage [1, 28]: 330.3 ± 18.5 ng/mL; Measured concentration after storage [1, 29]: 334.2 ± 8.0 ng/mL
